# Assay results from paper PMC6941952, “A homogeneous bioluminescent immunoassay to probe cellular signaling pathway regulation” (Communications Biology, 2020).
# Several values for one entry are separate records, joined by “and”; a condition that tells them apart may be missing. Equal values may be shown once.
# Assays:
# [1] = system: phospho-IκBα (Ser32); test: NanoBiT cell-based immunoassay, phosphorylated IκBα in human primary mammary epithelial cells; conditions: for P-IkB Average: background subtracted; for P-IkB Raw data / P-IkB Subtract reagent background: listed as TNF
# Method: (§1) All cell lines used are from ATCC. […] Human Primary Mammary Epithelial Cells (#H-6035), Human Breast Tumor Epithelial Cells (#HC-6035), Complete Human Epithelial Cell Medium (#H6621), and Gelatin-Based Coating Solution (#H6950) were purchased from Cell Biologics. The cells were cultured according to the manufacturer’s procedure. All cells were grown at 37 °C in a 5% CO2 humidified incubator and passaged before reaching 80% cell confluency. Prior to each experiment, cells were counted by combining 30 µl of cell suspension with 30 µl of trypan blue. After gentle pipetting up and down to mix the cells and the dye, the cell number was determined using Bio-Rad TC 20 cell counter.
# (§2) Prior to NanoBiT Cell-Based Immunoassay, 50,000 cells were seeded in 160 µl of complete growth media per well of a 96-well plate and incubated overnight. The cells were checked under microscope and it was determined that 50,000 cells per well in 96-well plate is under 90% confluency for all cells tested. If necessary, the cell culture media were replaced with serum-free media after the cells were stably adherent on the plate and incubated overnight. To treat cells with activators or inhibitors, medium was changed to 30 µl of medium containing inhibitors. If activation of a specific pathway is needed, the cells were stimulated with 10 µl of medium containing activators. To lyse the cells, 10 µl of lysis buffer containing 0.1% digitonin diluted in 1X immunoassay buffer with protease and phosphatase inhibitors was added and the plates were mixed vigorously for 20 min. Then, 50 µl of an antibody mix containing two primary antibodies against the target protein and NanoBiT detecting antibodies (0.3 µl each per well), diluted in 1X immunoassay buffer was added to the lysates. The plates were incubated at 23 °C for 90 min, followed by the addition of 25 µl of Nano-Glo® reagent consisting of Nano-Glo® Luciferase Assay Substrate mixed with 1X immunoassay buffer. Luminescence was measured using a plate-reading luminometer.
# (§3) Single dose or dose response inhibitor treatments were performed prior to activation of the pathways as follows. For IκBα, the cells were treated in 30 µl medium with IKK16 or MG132 for 60 min before the addition of 10 µl of DMEM containing appropriate concentration of TNFα. To measure phosphorylation of AKT or STAT3, the corresponding NanoBiT immunoassays were developed with MCF-7 or A431 cells, respectively, according the same scheme used to develop the IκBα assay using the primary antibodies for AKT and STAT3 described in the reagents section. For the AKT assay, MCF-7 cells were incubated overnight in phenol-red free DMEM medium (Gibco #21063-029) without serum. Treatment with LY294002 was performed in 30 µl medium and cells were incubated for 60 min before the addition of 1 µM Insulin. To measure STAT3 phosphorylation, A431 cells were incubated overnight in DMEM medium without serum. […] After addition of the stimulators, the cells were incubated for additional times as follows. IκBα phosphorylation and degradation analyses required both time courses and single time points as described in figures. […] The NanoBiT immunoassay protocol was followed as described above.
# (§4) All 96-well assay plates were read using a GloMax® 96 Microplate Luminometer from Promega. The instrument was set to 0.5 s integration time. In order to obtain net change of signal, the reagent background values (signal from the well containing all reagent except primary antibodies) were subtracted from the sample values. To plot and analyze the data, Microsoft Excel and GraphPad Prism® Software were used. IC50 values were determined by using a nonlinear regression fit to a sigmoidal dose response (variable slope).
# [2] = system: NF-κB p65 Phospho-Ser536; test: NanoBiT cell-based immunoassay, phosphorylated p65 in MCF-7 cells; parameters: species or system human; conditions: substance alone
# Method: as §2, §3, §4
# [3] = system: total NF-κB p65; test: NanoBiT cell-based immunoassay, total p65 in MCF-7 cells; parameters: species or system human
# Method: as §2, §3, §4
# [4] = system: total IκBα; test: NanoBiT cell-based immunoassay, total IκBα in human breast tumor epithelial cells; conditions: Breast Tumor Cells; for Total IkB Average: background subtracted; for Total IkB Raw data / Total IkB Subtract reagent background: listed as TNF
# Method: as §1, §2, §3, §4
# [5] = single replicates, listed as TNF
# [6] = substance alone, single replicates, listed as TNF
substance,measurement,setting,value
TNFα,P-IkB Average,[1]; TNF 2 min,5853
same,P-IkB Raw data,[1]; TNF 2 min,17220 and 16460 and 16920
same,P-IkB Subtract reagent background,[1]; TNF 2 min,6207 and 5447 and 5907
same,P-IkB Average,[1]; TNF 4 min,8003
same,P-IkB Raw data,[1]; TNF 4 min,18510 and 19530 and 19010
same,P-IkB Subtract reagent background,[1]; TNF 4 min,7497 and 8517
same,P-IkB Average,[1]; TNF 6 min,13540
same,P-IkB Raw data,[1]; TNF 6 min,23690 and 24890 and 25080
same,P-IkB Subtract reagent background,[1]; TNF 6 min,12677 and 13877
same,P-IkB Average,[1]; TNF 8 min,18690
same,P-IkB Raw data,[1]; TNF 8 min,28000 and 30000 and 31110
same,P-IkB Subtract reagent background,[1]; TNF 8 min,16987 and 18987
same,P-IkB Average,[1]; TNF 10 min,22970
same,P-IkB Raw data,[1]; TNF 10 min,33480 and 34070 and 34400
same,P-IkB Subtract reagent background,[1]; TNF 10 min,22467 and 23057
same,P-IkB Average,[1]; TNF 12 min,25163
same,P-IkB Raw data,[1]; TNF 12 min,35750 and 35400 and 37380
same,P-IkB Subtract reagent background,[1]; TNF 12 min,24737 and 24387
same,P-IkB Average,[1]; TNF 15 min,25267
same,P-IkB Raw data,[1]; TNF 15 min,35860 and 36040 and 36940
same,P-IkB Subtract reagent background,[1]; TNF 15 min,24847 and 25027 and 25927
same,P-IkB Average,[1]; TNF 30 min,18640
same,P-IkB Raw data,[1]; TNF 30 min,29280 and 29480 and 30200
same,P-IkB Subtract reagent background,[1]; TNF 30 min,18267 and 18467 and 19187
same,P-IkB Average,[1]; TNF 45 min,16850
same,P-IkB Raw data,[1]; TNF 45 min,28120 and 27980 and 27490
same,P-IkB Subtract reagent background,[1]; TNF 45 min,17107 and 16967 and 16477
same,P-IkB Average,[1]; TNF 60 min,19710
same,P-IkB Raw data,[1]; TNF 60 min,31240 and 30980 and 29950
same,P-IkB Subtract reagent background,[1]; TNF 60 min,20227 and 19967 and 18937
same,"P-p65, Average","[2]; background subtracted, average of replicates",154463
same,"P-p65, Raw data",[2]; [5],167400 and 177100 and 183300
same,"P-p65, Subtract reagent background",[2]; [5],145930 and 155630 and 161830
same,level of p65,"[3]; MCF-7 cells, TNFα 50 ng per ml 10 min, IKK16 10 µM 1 h",not affected
same,"Total p65, Average","[3]; substance alone, background subtracted, average of replicates",887990
same,"Total p65, Raw data",[3]; [6],913100 and 869100 and 947500
same,"Total p65, Subtract reagent background",[3]; [6],925590 and 891190 and 847190
same,Total IkB Average,[4]; TNF 2 min,21090
same,Total IkB Raw data,[4]; TNF 2 min,27000 and 28670 and 28950
same,Total IkB Subtract reagent background,[4]; TNF 2 min,21553 and 21833 and 19883
same,Total IkB Average,[4]; TNF 4 min,18310
same,Total IkB Raw data,[4]; TNF 4 min,25000 and 25490 and 25790
same,Total IkB Subtract reagent background,[4]; TNF 4 min,18373 and 18673 and 17883
same,Total IkB Average,[4]; TNF 6 min,13990
same,Total IkB Raw data,[4]; TNF 6 min,22120 and 20820 and 20380
same,Total IkB Subtract reagent background,[4]; TNF 6 min,13703 and 13263 and 15003
same,Total IkB Average,[4]; TNF 8 min,8950
same,Total IkB Raw data,[4]; TNF 8 min,16890 and 15660 and 15650
same,Total IkB Subtract reagent background,[4]; TNF 8 min,8543 and 8533 and 9773
same,Total IkB Average,[4]; TNF 10 min,6003
same,Total IkB Raw data,[4]; TNF 10 min,13590 and 12910 and 12860
same,Total IkB Subtract reagent background,[4]; TNF 10 min,5793 and 5743 and 6473
same,Total IkB Average,[4]; TNF 12 min,3767
same,Total IkB Raw data,[4]; TNF 12 min,11390 and 10770 and 10490
same,Total IkB Subtract reagent background,[4]; TNF 12 min,3653 and 3373 and 4273
same,Total IkB Average,[4]; TNF 15 min,2118
same,Total IkB Raw data,[4]; TNF 15 min,9632 and 9015 and 9057
same,Total IkB Subtract reagent background,[4]; TNF 15 min,1898 and 1940 and 2515
same,Total IkB Average,[4]; TNF 30 min,1696
same,Total IkB Raw data,[4]; TNF 30 min,8893 and 8691 and 8853
same,Total IkB Subtract reagent background,[4]; TNF 30 min,1574 and 1736 and 1776
same,Total IkB Average,[4]; TNF 45 min,4853
same,Total IkB Raw data,[4]; TNF 45 min,11970 and 11880 and 12060
same,Total IkB Subtract reagent background,[4]; TNF 45 min,4763 and 4943 and 4853
same,Total IkB Average,[4]; TNF 60 min,8867
same,Total IkB Raw data,[4]; TNF 60 min,15500 and 15850 and 16600
same,Total IkB Subtract reagent background,[4]; TNF 60 min,8733 and 9483 and 8383
